# From article PMC5307958 (Scientific Reports, 2017)
# Where a SMILES comes first, the peptide text is derived from it. Bridges are numbered along the chain shown (N, C = ends).
# What was measured:
# [1] = system: hslo(+) human BK channel gene (ZERO isoform) expressed in slo-1(null) worms; assay: C. elegans crawl speed, hslo(+) rescue on slo-1 null background; type: in vivo, Caenorhabditis elegans; details: 750 μM LS3, 30 min; transgenic hslo(+) on slo-1(null) background; vs. slo-1(null): p < 0.001, N = 78–162
# Procedure: Worms were cultivated at 20 °C as described with OP50 bacteria. Worms cultured on plates contaminated with fungi or other bacteria were excluded from this study. The reference wild-type strain was N2 Bristol. The reference slo-1(null) strain and background for transgenic strains was NM1968, harboring the previously characterized null allele, js379[29]. Multi-site gateway technology (Invitrogen) was used to construct plasmids. […] of the native slo-1 promoter (Pslo-1) and the traditional unc-54 UTR were used in combination with slo-1a(cDNA)::mCherry for a rescue construct. To test rescue with the human BK channel, an hslo(ZERO isoform, cDNA)::mCherry version was constructed. The slo-1(+) and hslo(+) plasmids were injected at a concentration of 20 and 10 ng/μl, respectively. The co-injection reporter PCFJ90 (1.25 ng/μl) was used to ensure proper transformation of the arrays. As such, JPS345 carried vxEx345, an extrachromosomal array containing [Pslo-1::slo-1::mCherry::unc-54UTR,Pmyo-2::mCherry::unc-54UTR]. JPS340 carried […], an extrachromosomal array containing [Pslo-1::hslo::mCherry::unc-54UTR,Pmyo-2::mCherry::unc-54UTR].
# Age-matched day one adults were cleaned of bacteria by letting them crawl around on an unseeded plate and then moved into a puddle of NGM or peptide dissolved in NGM on another unseeded plate. […]
# 33 mammalian CNS targets = assay: NIMH-PDSP competition binding panel, all targets
# Procedure: (§1) LS3 was screened against a comprehensive panel of CNS-based proteins. Detailed protocols can be found within the US National Institute of Mental Health Psychoactive Drug Screening Program (NIMH PDSP) Assay Protocol Book (version II), by B. L. Roth, March 2013 (available at: http://pdsp.med.unc.edu/PDSP%20Protocols%20II%202013-03-28.pdf). […] Radioactivity in the presence of the LS3 (sample) was calculated with the following equation and expressed as a percent inhibition: % inhibition = (sample CPM – non-specific CPM)/Total CPM – non-specific CPM) × 100. Total binding was measured with no competing ligand. Non-specific binding was measured in the presence of reference compound. The % inhibition by LS3 was measured 4 times for each receptor.
# 5HT 1A = assay: Competition radioligand binding (NIMH PDSP); details: radioligand 8-OH-DPAT, measured 4 times
# Procedure: as §1
# 5HT 1B = assay: Competition radioligand binding (NIMH PDSP); details: radioligand GR127543, measured 4 times
# Procedure: as §1
# 5HT 2A = assay: Competition radioligand binding (NIMH PDSP); details: radioligand Ketanserin, measured 4 times
# Procedure: as §1
# 5HT 2B = assay: Competition radioligand binding (NIMH PDSP); details: radioligand LSD, measured 4 times
# Procedure: as §1
# Adrenergic Alpha1A = assay: Competition radioligand binding (NIMH PDSP); details: radioligand Prazosin, measured 4 times
# Procedure: as §1
# Adrenergic Alpha2A = assay: Competition radioligand binding (NIMH PDSP); details: radioligand Clonidine, measured 4 times
# Procedure: as §1
# BZP rat brain site = assay: Competition radioligand binding (NIMH PDSP); details: radioligand Flunitrazepam, measured 4 times
# Procedure: as §1
# Dopamine D1 = assay: Competition radioligand binding (NIMH PDSP); details: radioligand SCH233930, measured 4 times
# Procedure: as §1
# Dopamine D2 = assay: Competition radioligand binding (NIMH PDSP); details: radioligand N-methylspiperone, measured 4 times
# Procedure: as §1
# GABAA = assay: Competition radioligand binding (NIMH PDSP); details: radioligand Muscimol, measured 4 times
# Procedure: as §1
# Histamine H1 = assay: Competition radioligand binding (NIMH PDSP); details: radioligand Pyrilamine, measured 4 times
# Procedure: as §1
# Histamine H3 = assay: Competition radioligand binding (NIMH PDSP); details: radioligand α-methylhistamine, measured 4 times
# Procedure: as §1
# NET = assay: Competition radioligand binding (NIMH PDSP); details: radioligand Nisoxetine, measured 4 times
# Procedure: as §1
# Opioid DOR = assay: Competition radioligand binding (NIMH PDSP); details: radioligand DADLE, measured 4 times
# Procedure: as §1
# Opioid MOR = assay: Competition radioligand binding (NIMH PDSP); details: radioligand DAMGO, measured 4 times
# Procedure: as §1
# SERT = assay: Competition radioligand binding (NIMH PDSP); details: radioligand Citalopram, measured 4 times
# Procedure: as §1
# Sigma 2 = assay: Competition radioligand binding (NIMH PDSP); details: radioligand DTG, measured 4 times
# Procedure: as §1
# hERG = assay: Competition radioligand binding (NIMH PDSP); details: human, probe Dofetilide (radioligand), measured 4 times, read-out: % inhibition by 10 µM LS3
# Procedure: as §1
smiles,measurement,setting,value
CC(C)C[C@@H]1NC(=O)CNC(=O)[C@H](CCCNC(=N)N)NC(=O)[C@H](CCCNC(=N)N)NC(=O)[C@@H](N)CSSC[C@@H](C(=O)O)NC(=O)[C@H](C(C)C)NC(=O)[C@H](CCC(N)=O)NC(=O)[C@H](C(C)C)NC1=O [LS3] (H-CRRGLVQVC-OH; disulfide 1-9; N-terminus and C-terminus assumed),LS3-induced slowing response (reduction in crawl speed),[1],rescued the LS3-induced slowing response
same,interaction with known ligand binding sites on 33 mammalian CNS targets,33 mammalian CNS targets; 10 microM LS3,does not have high affinity interactions
same,inhibition of radioligand binding,"33 mammalian CNS targets; 10 microM LS3, all 33 targets, printed 'substantially less than 50%', each measured 4 times",less than 50%
same,Ki,"33 mammalian CNS targets; inferred from less than 50% inhibition at 10 microM LS3, array of CNS targets",> 10 µM
same,% inhibition by 10 µM LS3,5HT 1A,11.4%
same,% inhibition by 10 µM LS3,5HT 1B,2.8%
same,% inhibition by 10 µM LS3,5HT 2A,16.2%
same,% inhibition by 10 µM LS3,5HT 2B,3.2%
same,% inhibition by 10 µM LS3,Adrenergic Alpha1A,11.3%
same,% inhibition by 10 µM LS3,Adrenergic Alpha2A,3.2%
same,% inhibition by 10 µM LS3,BZP rat brain site,5.1%
same,% inhibition by 10 µM LS3,Dopamine D1,15.7%
same,% inhibition by 10 µM LS3,Dopamine D2,20.9%
same,% inhibition by 10 µM LS3,GABAA,19.3%
same,% inhibition by 10 µM LS3,Histamine H1,14.8%
same,% inhibition by 10 µM LS3,Histamine H3,5.1%
same,% inhibition by 10 µM LS3,NET,6.7%
same,% inhibition by 10 µM LS3,Opioid DOR,1.9%
same,% inhibition by 10 µM LS3,Opioid MOR,2.2%
same,% inhibition by 10 µM LS3,SERT,0.1%
same,% inhibition by 10 µM LS3,Sigma 2,24.3%
same,inhibition at 10 µM,hERG,21.2%
